According to ChEMBL document CHEMBL5727622, “Heterocyclic compounds used as FGFR inhibitors” (2020):

Key:
[1] = target: Fibroblast growth factor receptor 2 (Homo sapiens, UniProt P21802); test: Inhibition Assay: FGFR2: The in vitro activity of FGFR2 was determined by assaying the phosphorylation level of the substrate in the kinase reaction, by means of an HTRF kinase assay kit. The reaction buffer comprised the following components: 5-fold diluted Enzymatic buffer/kinase 5× (main ingredient: 50 mM HEPES, pH 7.0), 5 mM MgCl2, 1 mM DTT; the human recombinant FGFR2 catalytic structural domain protein (amino acids 400-821) was commercially available from Beijing Sino Biological Inc., diluted with the reaction buffer to a 0.045 ng/μL kinase solution; the substrate reaction solution comprised a biotin labeled tyrosine kinase substrate diluted with the reaction buffer to 800 nM, and 50 μM ATP, and the assay solution comprised an Eu3+ labeled cage-shaped antibody (Cisbio, Catalog number 61T66KLB) diluted with the assay buffer (Cisbio, Catalog number 62SDBRDF) to 0.125 ng/μL, and 50 nM streptavidin labeled XL665.
[2] = target: Fibroblast growth factor receptor 3 (Homo sapiens, UniProt P22607); test: Inhibition Assay: FGFR3: The in vitro activity of FGFR3 was determined by assaying the phosphorylation level of the substrate in the kinase reaction, by means of an HTRF kinase assay kit. The reaction buffer comprised the following components: 5-fold diluted Enzymatic buffer/kinase 5×(main ingredient: 50 mM HEPES, pH 7.0), 5 mM MgCl2, 1 mM DTT; the human recombinant FGFR3 catalytic structural domain protein (amino acids 399-806), diluted with the reaction buffer to a 0.3 ng/μL kinase solution; the substrate reaction solution comprised a biotin labeled tyrosine kinase substrate diluted with the reaction buffer to 1000 nM, and 90 μM ATP, and the assay solution comprised an Eu3+ labeled cage-shaped antibody diluted with the assay buffer to 0.125 ng/μL, and 62.5 nM streptavidin labeled XL665.
[3] = target: Fibroblast growth factor receptor 1 (Homo sapiens, UniProt P11362); test: Inhibition Assay: FGFR1: The in vitro activity of FGFR1 was determined by assaying the phosphorylation level of the substrate in the kinase reaction, by means of an HTRF kinase assay kit. The reaction buffer comprised the following components: 5-fold diluted Enzymatic buffer/kinase 5× (main ingredient: 50 mM HEPES, pH 7.0), 5 mM MgCl2, 1 mM DTT; the human recombinant FGFR1 catalytic structural domain protein (amino acids 308-731) was purified by the company itself, diluted with the reaction buffer to a 0.6 ng/μL kinase solution; the substrate reaction solution comprised a biotin labeled tyrosine kinase substrate diluted with the reaction buffer to 400 nM , and 40 μM ATP, and the assay solution comprised an Eu3+ labeled cage-shaped antibody diluted with the assay buffer to 0.125 ng/μL, and 25 nM streptavidin labeled XL665.
[4] = target: Fibroblast growth factor receptor 4 (Homo sapiens, UniProt P22455); test: Inhibition Assay: FGFR4:The in vitro activity of FGFR4 was determined by assaying the phosphorylation level of the substrate in the kinase reaction, by means of an HTRF kinase assay kit. The reaction buffer comprised the following components: 5-fold diluted Enzymatic buffer/kinase 5×(main ingredient: 50 mM HEPES, pH 7.0), 5 mM MgCl2, 1 mM DTT; the human recombinant FGFR4 catalytic structural domain protein (amino acids 460-802), diluted with the reaction buffer to a 0.5 ng/μL kinase solution; the substrate reaction solution comprised a biotin labeled tyrosine kinase substrate diluted with the reaction buffer to 500 nM , and 90 μM ATP, and the assay solution comprised an Eu3+ labeled cage-shaped antibody diluted with the assay buffer to 0.125 ng/μL, and 31.25 nM streptavidin labeled XL665).
Fibroblast growth factor receptor 4, sequence (P22455 whole entry, the tested form may be a part): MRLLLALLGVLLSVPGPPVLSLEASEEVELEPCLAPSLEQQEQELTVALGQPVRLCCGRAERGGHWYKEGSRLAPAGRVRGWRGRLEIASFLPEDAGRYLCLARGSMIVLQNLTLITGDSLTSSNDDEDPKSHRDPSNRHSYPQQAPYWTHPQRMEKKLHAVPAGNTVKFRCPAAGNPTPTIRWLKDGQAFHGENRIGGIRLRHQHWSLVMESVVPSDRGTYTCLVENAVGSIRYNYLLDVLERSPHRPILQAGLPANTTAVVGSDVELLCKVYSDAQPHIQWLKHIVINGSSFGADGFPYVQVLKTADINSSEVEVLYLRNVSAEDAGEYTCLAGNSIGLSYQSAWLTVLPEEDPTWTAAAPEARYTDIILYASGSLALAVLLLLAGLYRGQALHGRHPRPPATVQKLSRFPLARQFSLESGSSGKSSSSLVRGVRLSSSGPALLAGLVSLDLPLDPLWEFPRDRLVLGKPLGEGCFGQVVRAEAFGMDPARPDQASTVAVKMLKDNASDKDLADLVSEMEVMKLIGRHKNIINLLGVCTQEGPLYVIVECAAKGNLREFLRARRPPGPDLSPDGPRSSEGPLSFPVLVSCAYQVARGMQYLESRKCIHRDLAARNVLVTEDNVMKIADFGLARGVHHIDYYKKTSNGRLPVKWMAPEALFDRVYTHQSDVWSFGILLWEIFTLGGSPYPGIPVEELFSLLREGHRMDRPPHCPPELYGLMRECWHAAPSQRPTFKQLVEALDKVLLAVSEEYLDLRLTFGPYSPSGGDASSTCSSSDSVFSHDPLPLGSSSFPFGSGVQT

Fibroblast growth factor receptor 2, sequence (P21802 whole entry, the tested form may be a part): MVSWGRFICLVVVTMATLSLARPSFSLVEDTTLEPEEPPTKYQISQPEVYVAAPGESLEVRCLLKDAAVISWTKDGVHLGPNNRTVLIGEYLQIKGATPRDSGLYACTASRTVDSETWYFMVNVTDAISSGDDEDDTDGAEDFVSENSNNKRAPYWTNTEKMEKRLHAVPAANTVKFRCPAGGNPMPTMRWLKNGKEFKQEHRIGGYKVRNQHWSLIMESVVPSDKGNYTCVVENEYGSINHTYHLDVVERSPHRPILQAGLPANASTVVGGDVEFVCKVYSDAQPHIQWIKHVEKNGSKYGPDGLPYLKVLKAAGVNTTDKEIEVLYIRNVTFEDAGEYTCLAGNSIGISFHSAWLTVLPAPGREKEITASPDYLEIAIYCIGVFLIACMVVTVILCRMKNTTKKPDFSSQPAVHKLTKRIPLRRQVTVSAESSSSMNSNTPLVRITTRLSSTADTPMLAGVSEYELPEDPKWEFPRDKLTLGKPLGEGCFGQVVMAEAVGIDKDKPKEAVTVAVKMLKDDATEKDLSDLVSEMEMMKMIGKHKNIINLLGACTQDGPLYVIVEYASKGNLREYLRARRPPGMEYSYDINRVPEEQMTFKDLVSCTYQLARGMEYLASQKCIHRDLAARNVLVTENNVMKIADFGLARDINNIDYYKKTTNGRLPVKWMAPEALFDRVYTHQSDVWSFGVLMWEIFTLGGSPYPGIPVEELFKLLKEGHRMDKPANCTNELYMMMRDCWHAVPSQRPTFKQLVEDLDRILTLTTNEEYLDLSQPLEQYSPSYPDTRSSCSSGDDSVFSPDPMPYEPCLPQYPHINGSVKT
Fibroblast growth factor receptor 1, sequence (P11362 whole entry, the tested form may be a part): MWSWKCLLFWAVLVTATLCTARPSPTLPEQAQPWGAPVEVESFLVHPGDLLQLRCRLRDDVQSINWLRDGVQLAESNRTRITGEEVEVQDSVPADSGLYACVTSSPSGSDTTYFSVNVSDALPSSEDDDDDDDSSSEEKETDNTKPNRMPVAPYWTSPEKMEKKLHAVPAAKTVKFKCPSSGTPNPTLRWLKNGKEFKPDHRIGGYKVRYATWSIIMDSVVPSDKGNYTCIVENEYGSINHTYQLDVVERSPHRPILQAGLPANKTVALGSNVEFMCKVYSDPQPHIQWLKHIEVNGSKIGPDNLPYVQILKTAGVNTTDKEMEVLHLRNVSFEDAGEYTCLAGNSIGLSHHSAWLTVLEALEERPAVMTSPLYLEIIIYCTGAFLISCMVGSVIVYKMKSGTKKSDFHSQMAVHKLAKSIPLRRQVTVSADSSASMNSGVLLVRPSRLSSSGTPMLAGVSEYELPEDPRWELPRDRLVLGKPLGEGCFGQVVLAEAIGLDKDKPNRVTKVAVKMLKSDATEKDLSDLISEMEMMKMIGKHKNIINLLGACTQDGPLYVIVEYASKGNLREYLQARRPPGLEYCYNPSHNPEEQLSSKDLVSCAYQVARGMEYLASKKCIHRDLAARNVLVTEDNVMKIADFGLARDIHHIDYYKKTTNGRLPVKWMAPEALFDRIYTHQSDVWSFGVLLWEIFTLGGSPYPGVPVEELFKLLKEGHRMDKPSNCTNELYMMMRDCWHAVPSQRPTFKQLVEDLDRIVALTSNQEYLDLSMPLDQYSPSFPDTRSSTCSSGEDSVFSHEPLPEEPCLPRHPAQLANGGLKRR
Fibroblast growth factor receptor 3, sequence (P22607 whole entry, the tested form may be a part): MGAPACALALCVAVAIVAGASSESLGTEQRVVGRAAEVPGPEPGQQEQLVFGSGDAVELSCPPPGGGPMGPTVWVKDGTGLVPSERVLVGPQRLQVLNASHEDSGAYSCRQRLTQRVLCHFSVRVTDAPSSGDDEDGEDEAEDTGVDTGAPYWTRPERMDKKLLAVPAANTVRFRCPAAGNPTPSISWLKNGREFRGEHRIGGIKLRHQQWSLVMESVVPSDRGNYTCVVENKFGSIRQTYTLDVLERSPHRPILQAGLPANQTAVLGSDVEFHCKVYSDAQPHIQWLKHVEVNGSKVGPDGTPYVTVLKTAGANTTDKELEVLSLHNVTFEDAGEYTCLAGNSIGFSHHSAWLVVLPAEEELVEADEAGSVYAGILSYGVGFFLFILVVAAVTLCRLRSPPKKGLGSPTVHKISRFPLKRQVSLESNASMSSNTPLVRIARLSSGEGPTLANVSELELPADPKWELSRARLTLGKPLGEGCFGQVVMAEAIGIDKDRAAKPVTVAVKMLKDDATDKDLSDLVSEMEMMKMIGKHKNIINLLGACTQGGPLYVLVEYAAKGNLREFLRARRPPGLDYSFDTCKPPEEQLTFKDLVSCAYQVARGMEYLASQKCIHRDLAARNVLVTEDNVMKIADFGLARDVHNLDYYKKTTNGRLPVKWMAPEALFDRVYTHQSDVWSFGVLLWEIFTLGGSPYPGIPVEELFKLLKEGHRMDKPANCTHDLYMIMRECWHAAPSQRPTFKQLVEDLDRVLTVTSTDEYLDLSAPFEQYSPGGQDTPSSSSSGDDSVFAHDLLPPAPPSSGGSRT

Row | SMILES | IC50 [1] [nM] | IC50 [2] [nM] | IC50 [3] [nM] | IC50 [4] [nM]
1 | CN1CCN(Cc2ccc(N(C)C(=O)Nc3cc(Cl)c(C#N)cn3)nc2C=O)C(=O)C1 | > 1000 | > 1000 | > 1000 | 
2 | COCCNc1cc(NC(=O)N(C)c2ccc(CN3CCOCC3=O)c(C=O)n2)ncc1C#N | > 1000 | > 1000 | > 1000 | < 10
3 | CC(C)Nc1cc(NC(=O)N(C)c2ccc(CN3CCN(C)CC3=O)c(C=O)n2)ncc1C#N | > 1000 | > 1000 | > 1000 | < 10
4 | COC[C@@H](C)Oc1cc(NC(=O)N(C)c2ccc(CN3CCN(C)CC3=O)c(C=O)n2)ncc1C#N | > 1000 | > 1000 | > 1000 | < 10
5 | CC(C)Nc1cc(NC(=O)N(C)c2ccc(CN3CCOCC3=O)c(C=O)n2)ncc1C#N | > 1000 | > 1000 | > 1000 | < 10
6 | C[C@@H](CO)Oc1cc(NC(=O)N(C)c2ccc(CN3CCN(C)CC3=O)c(C=O)n2)ncc1C#N | > 1000 | > 1000 | > 1000 | < 10
7 | CC(C)Oc1cc(NC(=O)N(C)c2ccc(CN3CCN(C)CC3=O)c(C=O)n2)ncc1C#N | > 1000 | > 1000 | > 1000 | < 10
8 | COCCOc1cc(NC(=O)N(C)c2ccc(CN3CCOCC3=O)c(C=O)n2)ncc1C#N | > 1000 | > 1000 | > 1000 | < 10
9 | COC[C@H](C)Oc1cc(NC(=O)N(C)c2ccc(CN3CCN(C)CC3=O)c(C=O)n2)ncc1C#N | > 1000 | > 1000 | > 1000 | < 10
